In US20230117034A1, “PYRAZOLOTRIAZINES” (Bayer Aktiengesellschaft, priority 2019, published 2023):
Where two headings read alike, the source gives them in different places.

Tests used:
Type in all cases: cell-based
[1] = tested on: MDA-MB-231, human breast cancer cells; assay: Proliferation assay MDA-MB-231 (crystal violet, 4 days); conditions: MDA-MB-231 cells, median, read-out: Prolif-MDA MB-231, IC50-[mol/l] (median)
Summary of the method: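 IC50 from a 4-parameter fit of crystal violet absorbance (595 nm), scaled between a day-0 plate (0%) and untreated wells (100%). Cells grown in 10% FCS medium were exposed to test substances at 0.01-10 µmol/L for 4 days, 0.1% DMSO final.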

[2] = biological target: T1, CDK12 (nuclear staining in CAL-120 cells) (Homo sapiens, UniProt Q9NYV4); assay: CDK12 nuclear protein level: immunofluorescence/high content analysis (CAL-120); conditions: for DC50: CAL-120 cells, 24 h, immunofluorescence, 50% reduction of nuclear CDK12 staining intensity, median, read-out: CDK12 degradation IF, DC50- [mol/l] (median); for (IC50 CDK12 high ATP) to (Degradation DC50 CDK12) ratio: ratio of IC50 CDK12 high ATP kinase assay to DC50 CDK12 degradation (IF, CAL-120)
T1 construct: endogenous in cells; host or cells: CAL-120 human breast cancer cells (DSMZ ACC 459)
T1 sequence (Q9NYV4 whole entry): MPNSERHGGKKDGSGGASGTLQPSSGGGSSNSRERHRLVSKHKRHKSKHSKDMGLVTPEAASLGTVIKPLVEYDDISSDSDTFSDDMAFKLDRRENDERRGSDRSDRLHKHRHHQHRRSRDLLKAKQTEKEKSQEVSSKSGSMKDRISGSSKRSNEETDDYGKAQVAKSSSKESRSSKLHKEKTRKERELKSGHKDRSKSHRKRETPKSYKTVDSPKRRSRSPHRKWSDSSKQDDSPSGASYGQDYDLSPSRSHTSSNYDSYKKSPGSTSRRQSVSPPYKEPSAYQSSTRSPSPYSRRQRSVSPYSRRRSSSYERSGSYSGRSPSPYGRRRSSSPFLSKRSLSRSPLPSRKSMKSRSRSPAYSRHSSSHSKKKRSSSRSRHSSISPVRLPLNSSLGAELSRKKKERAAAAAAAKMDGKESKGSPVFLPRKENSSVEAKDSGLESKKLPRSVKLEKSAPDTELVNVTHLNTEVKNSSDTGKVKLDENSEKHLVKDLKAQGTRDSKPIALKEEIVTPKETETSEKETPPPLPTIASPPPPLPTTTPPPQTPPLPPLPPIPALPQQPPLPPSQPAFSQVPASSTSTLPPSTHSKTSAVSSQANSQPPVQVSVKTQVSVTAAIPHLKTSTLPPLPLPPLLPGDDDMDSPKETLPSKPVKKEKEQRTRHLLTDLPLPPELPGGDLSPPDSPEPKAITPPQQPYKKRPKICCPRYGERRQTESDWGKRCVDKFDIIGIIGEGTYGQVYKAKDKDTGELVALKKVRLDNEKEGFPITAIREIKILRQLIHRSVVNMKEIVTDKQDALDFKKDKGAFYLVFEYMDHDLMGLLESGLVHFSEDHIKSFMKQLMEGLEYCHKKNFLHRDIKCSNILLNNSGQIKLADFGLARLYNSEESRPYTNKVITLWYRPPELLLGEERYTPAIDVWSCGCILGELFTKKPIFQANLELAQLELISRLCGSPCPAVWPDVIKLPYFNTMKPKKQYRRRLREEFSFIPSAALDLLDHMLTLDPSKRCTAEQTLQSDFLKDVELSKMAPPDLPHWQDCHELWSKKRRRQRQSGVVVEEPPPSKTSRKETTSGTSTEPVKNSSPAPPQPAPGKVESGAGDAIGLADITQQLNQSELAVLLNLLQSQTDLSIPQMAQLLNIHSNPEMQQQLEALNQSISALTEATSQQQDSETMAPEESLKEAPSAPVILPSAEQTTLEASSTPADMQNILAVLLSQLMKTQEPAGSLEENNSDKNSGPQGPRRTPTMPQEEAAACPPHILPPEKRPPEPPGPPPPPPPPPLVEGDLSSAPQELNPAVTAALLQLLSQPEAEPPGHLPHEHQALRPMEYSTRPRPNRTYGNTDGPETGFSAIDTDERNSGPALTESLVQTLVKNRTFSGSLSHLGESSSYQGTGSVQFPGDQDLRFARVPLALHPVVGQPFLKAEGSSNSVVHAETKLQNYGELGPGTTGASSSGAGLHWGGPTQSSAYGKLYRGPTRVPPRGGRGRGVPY
T1 sequence (O75909 whole entry partner): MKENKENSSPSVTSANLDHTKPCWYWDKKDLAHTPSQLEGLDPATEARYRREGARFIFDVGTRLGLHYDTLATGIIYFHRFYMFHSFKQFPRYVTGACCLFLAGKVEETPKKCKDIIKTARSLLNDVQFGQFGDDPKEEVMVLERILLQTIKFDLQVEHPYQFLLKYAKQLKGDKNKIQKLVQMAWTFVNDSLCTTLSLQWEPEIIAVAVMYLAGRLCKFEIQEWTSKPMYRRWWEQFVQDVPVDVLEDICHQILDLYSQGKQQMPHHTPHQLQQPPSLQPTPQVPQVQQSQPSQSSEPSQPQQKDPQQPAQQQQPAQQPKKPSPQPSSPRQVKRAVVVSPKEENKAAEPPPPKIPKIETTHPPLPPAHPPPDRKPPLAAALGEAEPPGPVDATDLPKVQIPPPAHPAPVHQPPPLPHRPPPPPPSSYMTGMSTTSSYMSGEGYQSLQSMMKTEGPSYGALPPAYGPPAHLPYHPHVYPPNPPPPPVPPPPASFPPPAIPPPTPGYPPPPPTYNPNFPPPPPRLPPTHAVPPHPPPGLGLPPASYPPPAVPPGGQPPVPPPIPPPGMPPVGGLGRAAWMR
Summary of the method: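 DC50 is the degrader concentration that halves nuclear CDK12 immunofluorescence relative to controls, measured by high-content imaging. CAL-120 cells were exposed to compound for 24 h at 37 °C before PFA fixation, and signal was normalized to DMSO and control wells.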

[3] = biological target: T2, CYCLIN K (nuclear staining in CAL-120 cells) (Homo sapiens, UniProt O75909); assay: CYCLIN K nuclear protein level: immunofluorescence high content analysis (CAL-120); conditions: 24 h, 50% reduction of nuclear CCNK staining intensity, median, read-out: CYCLIN K degradation IF, DC50-[mol/l] (median)
T2 construct: endogenous in cells; host or cells: CAL-120 human breast cancer cells (DSMZ ACC 459)
T2 sequence (O75909 whole entry): as the sequence (O75909 whole entry partner) above
T2 sequence (Q9NYV4 whole entry partner): as the sequence (Q9NYV4 whole entry) above
Summary of the method: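 Readout is automated confocal image analysis of nuclear cyclin K immunofluorescence (Hoechst nuclei) after PFA fixation. Cells were CAL-120, exposed to compound dose-response 24 h at 37 °C; values are DC50 for halving nuclear CCNK signal relative to DMSO and control wells.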

IC50 ([1]; Homo sapiens, MDA-MB-231, 96 h) [nM]	DC50 [2] [nM]	(IC50 CDK12 high ATP) to (Degradation DC50 CDK12) ratio [2]	DC50 [3] [nM]	IC50 [1] [nM]	SMILES
	19.9	>942	1.23	99.9	CC1CN(C)CCN1c1nc(NCc2nc3ccccc3[nH]2)n2ncc(Br)c2n1 (single isomer, unassigned; enantiomer 2) [Example 261, N-(1H-benzimidazol-2-ylmethyl)-8-bromo-2-[(2R or S)-2,4-dimethylpiperazin-1-yl]pyrazolo[1,5-a][1,3,5]triazin-4-amine (Enantiomer 2)]
14.3	1.49	>10636	0.627		N[C@H]1CCN(c2nc(NCc3nc4ccccc4[nH]3)n3ncc(Br)c3n2)C1 [Example 245, 2-[(3S)-3-aminopyrrolidin-1-yl]-N-[(1H-benzimidazol-2-yl)methyl]-8-bromopyrazolo[1,5-a][1,3,5]triazin-4-amine]
55.5	3.79	1239			NC12CC1CN(c1nc(NCc3nc4ccccc4[nH]3)n3ncc(Br)c3n1)C2 (stereo not shown) [Example 258, 2-(1-amino-3-azabicyclo[3.1.0]hexan-3-yl)-N-(1H-benzimidazol-2-ylmethyl)-8-bromo-pyrazolo[1,5-a][1,3,5]triazin-4-amine]
178	27.9	>320			CC1(O)CCN(c2nc(NCc3nc4ccccc4[nH]3)n3ncc(Br)c3n2)C1 (single isomer, unassigned) [Example 282, (3R or S)-1-(4-{[(1H-benzimidazol-2-yl)methyl]amino}-8-bromopyrazolo[1,5-a][1,3,5]triazin-2-yl)-3-methylpyrrolidin-3-ol]
107	31.9	>627			Brc1cnn2c(NCc3nc4ccccc4[nH]3)nc(N3C[C@@H]4CN[C@@H]4C3)nc12.O=C(O)C(F)(F)F [Example 267, trifluoroacetic acid-N-[(1H-benzimidazol-2-yl)methyl]-8-bromo-2-[(1S,5S)-3,6-diazabicyclo[3.2.0]heptan-3-yl]pyrazolo[1,5-a][1,3,5]triazin-4-amine (1/1)]
31.9	7.16	362			N[C@H]1CN(c2nc(NCc3nc4ccccc4[nH]3)n3ncc(Br)c3n2)CC12CC2 [Example 259, 2-[(7R)-7-amino-5-azaspiro[2.4]heptan-5-yl]-N-[(1H-benzimidazol-2-yl)methyl]-8-bromopyrazolo[1,5-a][1,3,5]triazin-4-amine]
231	21.4	678			CN1CCN(c2nc(NCc3nc4ccccc4[nH]3)n3ncc(Br)c3n2)C(CO)C1 (single isomer, unassigned) [Example 280, [(2R or S)-1-(4-{[(1H-benzimidazol-2-yl)methyl]amino}-8-bromopyrazolo[1,5-a][1,3,5]triazin-2-yl)-4-methylpiperazin-2-yl]methanol]
73.5	48.5	113			Brc1cnn2c(NCc3nc4ccccc4[nH]3)nc(NCC3CC3)nc12 [Example 284, N^4-[(1H-benzimidazol-2-yl)methyl]-8-bromo-N^2-(cyclopropylmethyl)pyrazolo[1,5-a][1,3,5]triazine-2,4-diamine]
34.3	101	106			CN(CC1CC1)c1nc(NCc2nc3ccccc3[nH]2)n2ncc(Br)c2n1 [Example 287, N^4-[(1H-benzimidazol-2-yl)methyl]-8-bromo-N^2-(cyclopropylmethyl)-N^2-methylpyrazolo[1,5-a][1,3,5]triazine-2,4-diamine]
133	52.4	66			NC1(C(F)(F)F)CCN(c2nc(NCc3nc4ccccc4[nH]3)n3ncc(Br)c3n2)C1 (stereo not shown) [Example 266, 2-[3-amino-3-(trifluoromethyl)pyrrolidin-1-yl]-N-(1H-benzimidazol-2-ylmethyl)-8-bromo-pyrazolo[1,5-a][1,3,5]triazin-4-amine]

The remaining lines, values behind:

SMILES	IC50 ([1]; Homo sapiens, MDA-MB-231, 96 h) [nM]	DC50 [2] [nM]	(IC50 CDK12 high ATP) to (Degradation DC50 CDK12) ratio [2]	DC50 [3] [nM]	IC50 [1] [nM]
Fc1cccc2[nH]c(CNc3nc(N4C[C@H]5CC[C@@H](C4)N5)nc4c(C5CC5)cnn34)nc12 [Example 296, 8-cyclopropyl-2-[(1R,5S)-3,8-diazabicyclo[3.2.1]octan-3-yl]-N-[(4-fluoro-1H-benzimidazol-2-yl)methyl]pyrazolo[1,5-a][1,3,5]triazin-4-amine]	4.4	2.55	971	1.15	
Fc1cccc2[nH]c(CNc3nc(N4CCOCC4)nc4c(CC(F)(F)F)cnn34)nc12 [Example 303, N-[(4-fluoro-1H-benzimidazol-2-yl)methyl]-2-(morpholin-4-yl)-8-(2,2,2-trifluoroethyl)pyrazolo[1,5-a][1,3,5]triazin-4-amine]	26.5	11	155	0.546	
CC(C)CNc1nc(NCc2nc3ccccc3[nH]2)n2ncc(Br)c2n1 [Example 285, N^4-[(1H-benzimidazol-2-yl)methyl]-8-bromo-N^2-(2-methylpropyl)pyrazolo[1,5-a][1,3,5]triazine-2,4-diamine]	90.6	32.3	200	3.46	
Brc1cnn2c(NCc3nc4ccccc4[nH]3)nc(N3C[C@H]4CN[C@H]4C3)nc12.O=C(O)C(F)(F)F [Example 255, trifluoroacetic acid-N-[(1H-benzimidazol-2-yl)methyl]-8-bromo-2-[(1R,5R)-3,6-diazabicyclo[3.2.0]heptan-3-yl]pyrazolo[1,5-a][1,3,5]triazin-4-amine (1/1)]	61	19.2	>1044		
Fc1ccc2[nH]c(CNc3nc(N4CCOCC4)nc4c(Br)cnn34)nc2c1F [Example 25, 8-bromo-N-[(4,5-difluoro-1H-benzimidazol-2-yl)methyl]-2-(morpholin-4-yl)pyrazolo[1,5-a][1,3,5]triazin-4-amine]		0.674	1084	0.263	
Brc1cnn2c(NCc3nc4ccccc4[nH]3)nc(N3C[C@H]4CC[C@@H]3CN4)nc12 (single isomer, unassigned) [Example 316, N-[(1H-benzimidazol-2-yl)methyl]-8-bromo-2-{[1R or S-(1R*4R*)]-2,5-diazabicyclo[2.2.2]octan-2-yl}pyrazolo[1,5-a][1,3,5]triazin-4-amine]	22.8	5.62	519		
Fc1ccc2[nH]c(CNc3nc(N4CCOCC4)nc4c(C5CCOCC5)cnn34)nc2c1F [Example 276, N-[(4,5-difluoro-1H-benzimidazol-2-yl)methyl]-2-(morpholin-4-yl)-8-(oxan-4-yl)pyrazolo[1,5-a][1,3,5]triazin-4-amine]	258	38.8	>516		
c1ccc2[nH]c(CNc3nc(N4C[C@@H]5CCCN[C@@H]5C4)nc4c(C5CC5)cnn34)nc2c1 [Example 249, N-[(1H-benzimidazol-2-yl)methyl]-8-cyclopropyl-2-[(4aS,7aS)-octahydro-6H-pyrrolo[3,4-b]pyridin-6-yl]pyrazolo[1,5-a][1,3,5]triazin-4-amine]	40.3	6.48	>2626		
Brc1cnn2c(NCc3nc4cccnc4[nH]3)nc(N3CCNCC3)nc12.O=CO [Example 19, 8-bromo-N-[(3H-imidazo[4,5-b]pyridin-2-yl)methyl]-2-(piperazin-1-yl)pyrazolo[1,5-a][1,3,5]triazin-4-amine formic acid salt]		10.9	1056		
Brc1cnn2c(NCc3nc4c([nH]3)CCCC4)nc(N3CCOCC3)nc12 [Example 21, 8-bromo-2-(morpholin-4-yl)-N-[(4,5,6,7-tetrahydro-1H-benzimidazol-2-yl)methyl]pyrazolo[1,5-a][1,3,5]triazin-4-amine]	285	186	52		
COc1cccc2[nH]c(CNc3nc(N4CCOCC4)nc4c(CC(F)(F)F)cnn34)nc12 [Example 277, N-[(4-methoxy-1H-benzimidazol-2-yl)methyl]-2-(morpholin-4-yl)-8-(2,2,2-trifluoroethyl)pyrazolo[1,5-a][1,3,5]triazin-4-amine]	40.2	4.48	1071		
Brc1cnn2c(NCc3nc4ccncc4[nH]3)nc(N3CCOCC3)nc12 [Example 22, 8-bromo-N-[(3H-imidazo[4,5-c]pyridin-2-yl)methyl]-2-(morpholin-4-yl)pyrazolo[1,5-a][1,3,5]triazin-4-amine]	593	99	40		
